Measurements published in ChEMBL document CHEMBL1201862, “PubChem BioAssay data set” (2004).
Active and inactive are the calls of the source.

Experiments:
[1] = target: T1, High affinity choline transporter 1 (Homo sapiens, UniProt Q9GZV3); experiment: human choline transporter blockers, potency – cell-based, 5-point CRC, membrane potential dye, dose response (AID 504840); format: functional
T1 sequence (Q9GZV3 whole entry): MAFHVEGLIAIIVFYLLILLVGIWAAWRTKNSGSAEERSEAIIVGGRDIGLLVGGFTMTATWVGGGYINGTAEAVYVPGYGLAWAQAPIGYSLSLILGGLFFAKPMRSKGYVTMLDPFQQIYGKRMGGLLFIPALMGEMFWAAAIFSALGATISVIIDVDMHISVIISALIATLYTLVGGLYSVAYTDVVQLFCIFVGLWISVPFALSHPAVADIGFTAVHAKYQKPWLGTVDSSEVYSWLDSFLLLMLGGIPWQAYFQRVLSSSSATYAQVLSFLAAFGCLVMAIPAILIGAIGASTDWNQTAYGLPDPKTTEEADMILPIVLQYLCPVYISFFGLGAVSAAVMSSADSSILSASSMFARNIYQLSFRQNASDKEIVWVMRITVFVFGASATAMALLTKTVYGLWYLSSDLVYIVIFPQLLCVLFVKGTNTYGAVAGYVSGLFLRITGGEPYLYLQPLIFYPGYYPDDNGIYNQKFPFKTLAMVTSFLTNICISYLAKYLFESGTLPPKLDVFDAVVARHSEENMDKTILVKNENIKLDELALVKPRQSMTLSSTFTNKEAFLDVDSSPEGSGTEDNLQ

[2] = target: T2, Endoribonuclease toxin MazF (Escherichia coli K-12, UniProt P0AE70); experiment: activation of MazEF endoribonuclease cleavage – biochemical, fluorescence, single-stranded RNA substrate, uHTS hits, dose response (AID 588481); format: functional
T2 sequence (P0AE70 whole entry): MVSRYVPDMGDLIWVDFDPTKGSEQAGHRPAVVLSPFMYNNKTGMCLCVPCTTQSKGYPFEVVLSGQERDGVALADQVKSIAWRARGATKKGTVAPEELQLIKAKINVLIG

[3] = target: T2, Endoribonuclease toxin MazF; experiment: substrate-only fluorescence increase artefacts – biochemical, single-stranded RNase substrate, counter-screen for MazEF activator project, dose response (AID 588502); format: functional
[4] = target: T3, Zinc finger protein mex-5 (Caenorhabditis elegans, UniProt Q9XUB2); experiment: potency of MEX-5 RNA-binding blockers – biochemical, C. elegans, fluorescence polarization, dose response (AID 1960)
T3 sequence (Q9XUB2 whole entry): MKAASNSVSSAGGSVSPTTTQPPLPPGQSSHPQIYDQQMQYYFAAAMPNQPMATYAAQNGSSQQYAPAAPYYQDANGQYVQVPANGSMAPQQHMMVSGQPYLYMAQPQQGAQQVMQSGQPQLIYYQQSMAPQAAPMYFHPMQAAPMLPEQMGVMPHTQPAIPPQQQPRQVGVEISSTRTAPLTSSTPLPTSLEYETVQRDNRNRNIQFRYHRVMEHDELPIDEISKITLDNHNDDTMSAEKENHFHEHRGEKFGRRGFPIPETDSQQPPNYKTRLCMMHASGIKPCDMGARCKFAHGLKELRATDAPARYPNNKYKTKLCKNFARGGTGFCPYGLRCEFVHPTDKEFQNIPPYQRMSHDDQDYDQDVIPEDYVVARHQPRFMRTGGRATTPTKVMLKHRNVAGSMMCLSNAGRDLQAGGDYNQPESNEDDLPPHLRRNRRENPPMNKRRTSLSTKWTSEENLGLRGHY

[5] = target: T4, RNA-binding protein pos-1 (Caenorhabditis elegans, UniProt G5EF15); experiment: disruptors of C. elegans POS-1 RNA interaction – biochemical, fluorescence polarization, dose response (AID 1964);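 further: purified POS-1 fused to maltose binding protein made in E. coli; potency of compounds blocking POS-1 binding to fluorescent RNA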
T4 sequence (G5EF15 whole entry): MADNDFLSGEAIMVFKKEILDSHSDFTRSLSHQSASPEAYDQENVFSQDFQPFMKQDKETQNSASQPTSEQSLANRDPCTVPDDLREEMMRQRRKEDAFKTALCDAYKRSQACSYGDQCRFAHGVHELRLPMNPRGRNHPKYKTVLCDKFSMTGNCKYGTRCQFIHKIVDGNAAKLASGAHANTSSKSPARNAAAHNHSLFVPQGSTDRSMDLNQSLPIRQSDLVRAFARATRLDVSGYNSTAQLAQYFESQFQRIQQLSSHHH

[6] = HEK-293T cell viability reduction – luminescence, B-cell screen hits, cytotoxicity control for BCR NF-kB inhibitor project, dose response (AID 489021); format: functional, cell-based;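 further: HEK-293T cells carrying an NF-kB luciferase reporter; cells exposed to compound for about 14 hours before viability readout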
[7] = target: T5, Sentrin-specific protease 7 (Homo sapiens, UniProt Q9BQF6); experiment: inhibition of human SENP7 cleavage activity – biochemical, luminescence, SAR follow-up (AID 504497); format: functional
T5 sequence (Q9BQF6 whole entry): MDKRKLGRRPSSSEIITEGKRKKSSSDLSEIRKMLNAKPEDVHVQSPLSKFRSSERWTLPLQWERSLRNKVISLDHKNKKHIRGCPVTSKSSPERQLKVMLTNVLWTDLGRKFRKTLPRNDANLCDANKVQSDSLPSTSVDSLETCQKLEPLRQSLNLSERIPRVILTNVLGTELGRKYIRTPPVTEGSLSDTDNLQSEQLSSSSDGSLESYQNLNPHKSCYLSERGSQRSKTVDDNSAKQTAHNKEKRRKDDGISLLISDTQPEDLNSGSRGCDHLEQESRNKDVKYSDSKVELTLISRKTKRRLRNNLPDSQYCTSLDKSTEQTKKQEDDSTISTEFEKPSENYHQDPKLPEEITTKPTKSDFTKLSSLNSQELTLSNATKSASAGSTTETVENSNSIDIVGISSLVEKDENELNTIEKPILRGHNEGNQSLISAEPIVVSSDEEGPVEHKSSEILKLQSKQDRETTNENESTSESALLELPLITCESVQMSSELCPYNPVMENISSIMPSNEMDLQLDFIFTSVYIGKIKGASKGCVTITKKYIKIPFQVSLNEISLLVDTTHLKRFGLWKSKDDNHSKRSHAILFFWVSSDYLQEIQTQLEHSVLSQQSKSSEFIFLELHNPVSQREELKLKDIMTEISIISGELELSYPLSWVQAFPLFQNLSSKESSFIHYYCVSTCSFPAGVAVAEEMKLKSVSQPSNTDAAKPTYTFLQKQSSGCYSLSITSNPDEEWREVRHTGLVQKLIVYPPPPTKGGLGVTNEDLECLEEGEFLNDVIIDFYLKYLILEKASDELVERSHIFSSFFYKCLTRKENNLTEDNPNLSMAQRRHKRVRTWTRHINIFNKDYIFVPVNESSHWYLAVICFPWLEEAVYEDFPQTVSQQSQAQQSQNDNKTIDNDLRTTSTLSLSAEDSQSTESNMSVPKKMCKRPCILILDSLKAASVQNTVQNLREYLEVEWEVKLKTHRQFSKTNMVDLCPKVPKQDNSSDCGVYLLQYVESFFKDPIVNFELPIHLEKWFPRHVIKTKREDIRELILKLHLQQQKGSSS

[8] = target: T6, Sentrin-specific protease 8 (Homo sapiens, UniProt Q96LD8); experiment: inhibition of human SENP8 cleavage activity – biochemical, luminescence, SAR follow-up (AID 504501); format: functional
T6 sequence (Q96LD8 whole entry): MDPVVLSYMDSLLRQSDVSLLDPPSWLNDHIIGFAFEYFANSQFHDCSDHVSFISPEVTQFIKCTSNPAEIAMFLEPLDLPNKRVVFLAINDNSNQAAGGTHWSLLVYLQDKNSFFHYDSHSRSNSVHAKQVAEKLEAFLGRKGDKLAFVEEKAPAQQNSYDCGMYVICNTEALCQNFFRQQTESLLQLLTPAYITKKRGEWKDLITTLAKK

[9] = target: T7, Sentrin-specific protease 6 (Homo sapiens, UniProt Q9GZR1); experiment: SAR Analysis of small molecule inhibitors of Sentrin-specific protease 6 (SENP6) using a Luminescent assay. [Related pubchem assays (depositor defined):AID2582, AID2599]; format: functional
T7 sequence (Q9GZR1 whole entry): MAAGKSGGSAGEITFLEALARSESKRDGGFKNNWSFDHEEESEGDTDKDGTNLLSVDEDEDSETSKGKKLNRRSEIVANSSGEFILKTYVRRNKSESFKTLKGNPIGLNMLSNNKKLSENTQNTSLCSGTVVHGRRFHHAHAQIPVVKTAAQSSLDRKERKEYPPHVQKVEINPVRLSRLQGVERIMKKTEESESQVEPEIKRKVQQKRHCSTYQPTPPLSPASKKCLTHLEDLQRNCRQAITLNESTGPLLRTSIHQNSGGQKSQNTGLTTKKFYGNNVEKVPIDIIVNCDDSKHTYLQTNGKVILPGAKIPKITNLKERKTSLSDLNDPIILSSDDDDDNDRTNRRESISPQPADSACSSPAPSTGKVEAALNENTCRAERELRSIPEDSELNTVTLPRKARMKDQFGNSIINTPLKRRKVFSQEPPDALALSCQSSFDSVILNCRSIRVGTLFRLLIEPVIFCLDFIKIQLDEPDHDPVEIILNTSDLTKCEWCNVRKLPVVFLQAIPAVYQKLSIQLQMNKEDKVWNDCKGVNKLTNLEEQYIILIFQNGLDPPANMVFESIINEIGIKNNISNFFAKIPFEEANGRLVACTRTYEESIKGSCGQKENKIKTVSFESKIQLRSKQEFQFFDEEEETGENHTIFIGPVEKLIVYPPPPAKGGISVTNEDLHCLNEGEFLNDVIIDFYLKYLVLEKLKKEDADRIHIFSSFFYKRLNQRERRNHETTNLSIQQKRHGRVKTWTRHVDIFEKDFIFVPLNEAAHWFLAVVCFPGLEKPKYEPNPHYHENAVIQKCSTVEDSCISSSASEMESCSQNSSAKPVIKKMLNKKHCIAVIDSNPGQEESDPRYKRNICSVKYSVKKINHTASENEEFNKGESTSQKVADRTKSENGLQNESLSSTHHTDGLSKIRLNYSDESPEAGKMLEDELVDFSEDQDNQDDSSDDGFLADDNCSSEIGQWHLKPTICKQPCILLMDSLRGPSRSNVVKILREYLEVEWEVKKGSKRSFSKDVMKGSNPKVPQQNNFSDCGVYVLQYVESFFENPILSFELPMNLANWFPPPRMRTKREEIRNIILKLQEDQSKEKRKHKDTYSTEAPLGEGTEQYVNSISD

[10] = target: T8, Caspase-3 (Homo sapiens, UniProt P42574); experiment: SAR Analysis of small molecule inhibitors of Sentrin-specific proteases (SENPs) using a Caspase-3 Selectivity assay. [Related pubchem assays (depositor defined):AID2540, AID2599, AID434973, AID489001]; format: functional
T8 sequence (P42574 whole entry): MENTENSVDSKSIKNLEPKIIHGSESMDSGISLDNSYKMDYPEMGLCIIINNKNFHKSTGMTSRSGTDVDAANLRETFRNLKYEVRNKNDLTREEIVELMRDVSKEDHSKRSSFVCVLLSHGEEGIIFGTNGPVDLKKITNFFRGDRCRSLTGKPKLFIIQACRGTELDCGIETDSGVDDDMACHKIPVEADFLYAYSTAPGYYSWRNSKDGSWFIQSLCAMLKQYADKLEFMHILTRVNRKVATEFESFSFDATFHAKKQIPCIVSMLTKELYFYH

[11] = system: P388; experiment: cells; format: functional; details: Mus musculus
[12] = system: P388/ADR; experiment: cells; format: functional; details: Mus musculus
[13] = system: SN12K1; experiment: cells; format: functional; details: Homo sapiens, SN12K1

SMILES: CC(C)(C)C(=O)Oc1cccc(Nc2ncnc3ccccc23)c1
- IC50 [1]: 13.8 µM (active)

SMILES: CCOc1cccc(C2C(C(=O)c3ccc(C)o3)=C(O)C(=O)N2c2nccs2)c1 (centres undefined)
- EC50 [2]: 16.9 µM (active)
- EC50 [3]: > 99 µM (inactive)
- EC50 [4]: 1.27 µM (active)
- EC50 [5]: 1.41 µM (inconclusive)

SMILES: C=CCN1C(=O)NC(=O)/C(=C(/CC)NC(C)c2ccccc2)C1=O (centres undefined)
- IC50 [1]: 1.91 µM (active)
- IC50 [6]: > 80 µM (inactive)

SMILES: Cc1n[nH]c(C)c1CCCCOc1ccccc1[N+](=O)[O-]
- IC50 [1]: 12.6 µM (active)

SMILES: CCCCOc1ccc(OCCCC)c2c1NC1(N2)C(=O)N(C(C)=O)c2ccccc21
- EC50 [2]: > 99 µM (inactive)
- EC50 [3]: > 99 µM (inactive)

SMILES: Cn1nc(C(F)(F)F)c(-c2ccccc2)c1NC(=O)c1cccnc1
- IC50 [1]: 13.2 µM (active)

SMILES: COc1ccc(C(=O)NN=c2c(=O)c3ccccc3c2=O)cc1
- IC50 [7]: > 99 µM (inactive)
- IC50 [8]: > 99 µM (inactive)
- IC50 [9]: 4.15 µM (active)
- IC50 [10]: > 99 µM (inactive)

SMILES: Fc1ccc(N/N=C/c2c[nH]c3ccccc23)cc1
- IC50 [7]: 27.2 µM (active)
- IC50 [8]: 45.2 µM (active)
- IC50 [9]: 42.2 µM (active)
- IC50 [10]: > 99 µM (inactive)

SMILES: O=C(O)CCN1C(=O)/C(=C/c2cccc(OCC(=O)Nc3ccc(Cl)cc3)c2)SC1=S
- IC50 [7]: 78.2 µM (active)
- IC50 [8]: 92.8 µM (active)
- IC50 [9]: 62.1 µM (active)
- IC50 [10]: > 99 µM (inactive)

SMILES: O=C(Nc1ccc(F)cc1)c1ccc2c(c1)OCO2
- IC50 [7]: 2.75 µM (active)
- IC50 [8]: 8.03 µM (active)
- IC50 [9]: 7.53 µM (active)
- IC50 [10]: 1.92 µM (active)

SMILES: O=NN1C(c2ccccc2)CCCC1c1ccccc1 (centres undefined)
- GI50 [11]: 27.5 µM (inactive)
- GI50 [12]: 31.8 µM (inactive)
- GI50 [13]: > 63.5 µM (inactive)

SMILES: CCCCNC(=O)/C(C#N)=c1\s/c(=C\c2ccccc2OC(F)F)c(=O)n1CCCOC
- EC50 [2]: > 99 µM (inactive)
- EC50 [3]: 88.5 µM (inactive)

SMILES: COC(=O)c1ccc(/N=N/N(C)COc2ccc([N+](=O)[O-])cc2)cc1
- GI50 [11]: 37.7 µM (inactive)
- GI50 [12]: 23.6 µM (inactive)
- GI50 [13]: 40.2 µM (inactive)

SMILES: CN(C)c1ccc(/C=N/NC(=O)c2cnc3ccccc3c2)cc1
- EC50 [2]: > 99 µM (inactive)
- EC50 [3]: 26.4 µM (inactive)

SMILES: O=S(=O)(O)c1ccc(/N=N\c2ccc(/N=N/c3ccc(/C=C/c4ccc(/N=[N+](\[O-])c5ccc(/C=C/c6ccc(/N=N/c7ccc(/N=N/c8ccc(S(=O)(=O)O)cc8)c8ccccc78)cc6S(=O)(=O)O)c(S(=O)(=O)O)c5)cc4S(=O)(=O)O)c(S(=O)(=O)O)c3)c3ccccc23)cc1
- GI50 [11]: > 100 µM (inactive)
- GI50 [13]: > 100 µM (inactive)
